Measurements: PMC11876671, “Investigating blood–brain barrier penetration and neurotoxicity of natural products for central nervous system drug development” (Scientific Reports, 2025)
Like-named read-outs stand apart in the source and are kept apart here.

Assays:
in vitro = conditions: PAMPA, PAMPA-BBB Pe
[1] = system: GFP-labeled iPSC-derived human cortical glutamatergic neurons; experiment: cells; format: cell-based; conditions: Homo sapiens, Neuron
[2] = system: GFP-labeled iPSC-derived human cortical glutamatergic neurons; experiment: cells; conditions: Neuron, 48 h
[3] = Table S1, total neurite length, 48 hr, head prints no unit, µM per Table 1 and Fig. 5, read-out: TNL AC50 (48 hr)
[4] = read-out: Viability AC50 (48hr)
[5] = Table S1, 60 min, room temperature, 0.05 mM
[6] = Table S2: compounds exhibiting moderate to high PAMPA-BBB permeability
[7] = Table 1, 60 min, room temperature, 0.05 mM
[8] = total neurite length, 48 h treatment, read-out: TNL AC50 (48 h)
[9] = read-out: Viability AC50 (48 h)

Structure (SMILES)	Papp (in vitro)	PAMPA-BBB Pe (PAMPA)	AC50 [1, 3]	AC50 [2, 4]	Papp (in vitro; [5])	PAMPA-BBB Pe [6]	PAMPA-BBB Pe [7]	AC50 [1, 8]	AC50 [2, 9]	Papp (in vitro; [6])	AC50 ([1]; 48 h, read-out: TNL AC50 (48 hr))	PAMPA-BBB Pe [5]
COC(=O)[C@H]1[C@H]2C[C@@H]3c4[nH]c5cc(OC)ccc5c4CCN3C[C@H]2C[C@@H](OC(=O)c2cc(OC)c(OC)c(OC)c2)[C@@H]1OC [Reserpine, reference compound]	90.1 ×10⁻⁶ cm/s	90 10^-6 cm/sec	31.8 µM	35.2 µM								
C=C(C)[C@@H]1CCC2=CC(=O)C[C@@H](C)[C@]2(C)C1 [Nootkatone]			13.1 µM	3.98 µM	63.3 ×10⁻⁶ cm/s	63 10^-6 cm/sec						
O=c1c(O)c(-c2ccccc2)oc2ccccc12 [3-Hydroxyflavone]					181 ×10⁻⁶ cm/s		181.17 10 × 10^− 6 cm/sec	2.97 µM	1.83 µM			
COc1cc(O)c2c(c1)C1OC1C[C@H](O)[C@H](O)C(=O)C=CC[C@H](C)OC2=O (some centres unmarked) [NCGC00183677-03]			35.9 µM	28.2 µM	69.3 ×10⁻⁶ cm/s	69 10^-6 cm/sec						
CN1Cc2c(ccc3c2OCO3)[C@@H]2[C@H]1c1cc3c(cc1C[C@@H]2O)OCO3 [Chelidonine]			7.54 µM	5.8 µM	75 ×10⁻⁶ cm/s	75 10^-6 cm/sec						
CC1=C(O)C(=O)C=C2C1=CC=C1[C@@]2(C)CC[C@@]2(C)[C@@H]3C[C@](C)(C(=O)O)CC[C@]3(C)CC[C@]12C [Celastrol]			4.92 µM	5.47 µM	143 ×10⁻⁶ cm/s		142.58 10 × 10^− 6 cm/sec	4.92 µM	5.47 µM	143 ×10⁻⁶ cm/s		
COc1ccc2c(c[n+](C)c3c4cc5c(cc4ccc23)OCO5)c1OC [Chelerythrine chloride]			2.79 µM	2.19 µM	94.7 ×10⁻⁶ cm/s		94.67 10 × 10^− 6 cm/sec	2.79 µM	2.19 µM			
C=CC[C@@H]1/C=C(\C)C[C@H](C)C[C@H](OC)[C@H]2O[C@@](O)(C(=O)C(=O)N3CCCC[C@H]3C(=O)O[C@H](/C(C)=C/[C@@H]3CC[C@@H](O)[C@H](OC)C3)[C@H](C)[C@@H](O)CC1=O)[C@H](C)C[C@@H]2OC [Tacrolimus, reference compound]			2.65 µM	4.19 µM	154 ×10⁻⁶ cm/s	154 10^-6 cm/sec	154.13 10 × 10^− 6 cm/sec	2.65 µM	4.19 µM			
COc1ccc(-c2coc3c(O)c(O)c(OC)cc3c2=O)cc1 [NCGC00264029-02]			30.1 µM	25.6 µM	40.1 ×10⁻⁶ cm/s	40 10^-6 cm/sec						
COc1ccc(/C=C\c2cc(OC)c(OC)c(OC)c2)cc1O [Combretastatin A4]			0.0277 µM	0.047 µM	316 ×10⁻⁶ cm/s	316 10^-6 cm/sec	315.59 10 × 10^− 6 cm/sec	0.028 µM	0.047 µM			
CCCC[C@@H](C)/C=C(C)/C=C(\C)C(=O)NC1=C[C@@](O)(/C=C/C=C/C=C/C(=O)NC2=C(O)CCC2=O)[C@@H]2O[C@@H]2C1=O [ManumycinA]			6.43 µM	8.33 µM	64 ×10⁻⁶ cm/s							
Cc1c(O)c(O)cc2c1CC=C1[C@@]2(C)CC[C@@]2(C)[C@H]3C[C@](C)(C(=O)O)CC[C@]3(C)CC[C@]12C [NCGC00264082-02]			2.37 µM	4.3 µM	288 ×10⁻⁶ cm/s	288 10^-6 cm/sec						
COc1cc([C@@H]2c3cc4c(cc3C[C@H]3COC(=O)[C@@H]32)OCO4)cc(OC)c1O [(5R,5aR,8aR)-5-(4-hydroxy-3,5-dimethoxyphenyl)-5,8,8a,9-tetrahydrofuro[3',4':6,7]naphtho[2,3-d][1,3]dioxol-6(5aH)-one]			0.585 µM	0.656 µM	11.2 ×10⁻⁶ cm/s					11 ×10⁻⁶ cm/s		
COc1cc(C)ccc1O [Creosol]	115 ×10⁻⁶ cm/s	115 10^-6 cm/sec		10.5 µM							15.3 µM	
O=c1cc(N2CCOCC2)oc2c(-c3cccc4c3sc3ccccc34)cccc12 [NU-7441, 8-(4-DIBENZOTHIENYL)-2-(4-MORPHOLINYL)-4H-1-BENZOPYRAN-4-ONE, reference compound]			2.85 µM	7.6 µM	102 ×10⁻⁶ cm/s		101.9 10 × 10^− 6 cm/sec	2.85 µM	7.6 µM			
O=c1cc(-c2ccc(O)c(O)c2)oc2ccccc12 [3',4'-DIHYDROXYFLAVONE]			15.7 µM	19.8 µM	93.9 ×10⁻⁶ cm/s	94 10^-6 cm/sec						
CCC(=O)CCCCC[C@@H]1NC(=O)[C@H]2CCCCN2C(=O)[C@H]([C@@H](C)CC)NC(=O)[C@H](Cc2cn(OC)c3ccccc23)NC1=O [Apicidin]			4.84 µM	2.17 µM	55.8 ×10⁻⁶ cm/s	56 10^-6 cm/sec	55.75 10 × 10^− 6 cm/sec	4.84 µM	2.17 µM			
Cc1c2ccncc2c(C)c2c1[nH]c1ccccc12 [Ellipticine]				19.6 µM		>1000 10^-6 cm/sec	> 1000 10 × 10^− 6 cm/sec	2.64 µM	19.6 µM			>1000 10^-6 cm/sec

Structure (SMILES)	Papp (in vitro)	PAMPA-BBB Pe (PAMPA)	AC50 [1, 3]	AC50 [2, 4]	Papp (in vitro; [5])	PAMPA-BBB Pe [6]	PAMPA-BBB Pe [7]	AC50 [1, 8]	AC50 [2, 9]	Papp (in vitro; [6])	AC50 ([1]; 48 h, read-out: TNL AC50 (48 hr))	PAMPA-BBB Pe [5]
O=c1cc(-c2ccc(O)cc2)oc2cc(O)cc(O)c12 [Apigenin]			35.9 µM	37.2 µM	36.2 ×10⁻⁶ cm/s	36 10^-6 cm/sec						
CC[C@H](C)[C@H]1O[C@]2(C=C[C@@H]1C)C[C@@H]1C[C@@H](C/C=C(\C)[C@@H](O[C@H]3C[C@H](OC)[C@@H](O[C@H]4C[C@H](OC)[C@@H](O)[C@H](C)O4)[C@H](C)O3)[C@@H](C)/C=C/C=C3\CO[C@@H]4[C@H](O)C(C)=C[C@@H](C(=O)O1)[C@]34O)O2 [Avermectin B1A]			25.9 µM	17.2 µM	35 ×10⁻⁶ cm/s							
COc1ccc2c(c1OC)C(=O)O[C@@H]2[C@H]1c2cc3c(cc2CCN1C)OCO3 [Hydrastine]			26.1 µM	22.8 µM	57.4 ×10⁻⁶ cm/s	57 10^-6 cm/sec						
CCCCCc1cc(O)c2c(c1)OC(C)(C)c1ccc(C)cc1-2 [Cannabinol]			28.2 µM	35.2 µM	20.6 ×10⁻⁶ cm/s					21 ×10⁻⁶ cm/s		
COc1ccc(/C=C/C(=O)c2ccc(O)cc2O)cc1 [2',4'-DIHYDROXY-4-METHOXYCHALCONE]			37.2 µM	21.5 µM	357 ×10⁻⁶ cm/s	357 10^-6 cm/sec						
Oc1ccc(C2=Cc3ccc(O)cc3OC2)cc1 [Phenoxodiol]			8.86 µM	4.33 µM	145 ×10⁻⁶ cm/s							
C=CC(C1=CC(=O)C(OC)=CC1=O)c1ccc(OC)cc1 (centres unmarked) [NCGC00095719-04]			1.26 µM	1.33 µM	143 ×10⁻⁶ cm/s					143 ×10⁻⁶ cm/s		
Cc1cc2c(C(C)C)c(O)c(O)c(C=O)c2c(O)c1-c1c(C)cc2c(C(C)C)c(O)c(O)c(C=O)c2c1O [Gossypol]			7.6 µM	6.91 µM	393 ×10⁻⁶ cm/s	393 10^-6 cm/sec						
CC1=C[C@H](O)CC(C)(C)[C@H]1/C=C/C(C)=C/C=C/C(C)=C/C=C/C=C(C)/C=C/C=C(C)/C=C/C1=C(C)C[C@@H](O)CC1(C)C [Lutein]			24.2 µM	21.1 µM	28 ×10⁻⁶ cm/s							
COC(=O)[C@H]1[C@H]2C[C@@H]3c4[nH]c5ccccc5c4CCN3C[C@H]2C[C@@H](OC(=O)c2cc(OC)c(OC)c(OC)c2)[C@@H]1OC [Deserpidine, reference compound]			11.3 µM	16.6 µM	42.1 ×10⁻⁶ cm/s	42 10^-6 cm/sec						
CC(C)c1cc2c(c(O)c1O)[C@@]13CCCC(C)(C)[C@@H]1C[C@@H]2OC3=O [Carnosol]			17.8 µM	26.4 µM	32.8 ×10⁻⁶ cm/s	33 10^-6 cm/sec						
CC(=O)O[C@@H]1C[C@@]2(C)[C@H](c3ccoc3)C[C@H]3O[C@]32[C@]2(C)C(=O)C(O)=C3C(C)(C)C(=O)C=C[C@]3(C)C12 (some centres unmarked) [NCGC00179158-03]			2.77 µM	2.35 µM	17.6 ×10⁻⁶ cm/s					18 ×10⁻⁶ cm/s		
COc1ccc(/C=C/C(=O)c2cc(O)ccc2O)cc1 [NCGC00096016-04]			12.9 µM	19.8 µM	300 ×10⁻⁶ cm/s	300 10^-6 cm/sec						
CN[C@@H]1C[C@H]2O[C@@](C)([C@@H]1OC)n1c3ccccc3c3c4c(c5c6ccccc6n2c5c31)C(=O)N[C@H]4O [7-hydroxystaurosporine (UCN-01), 7-hydroxystaurosporine]			5.74 µM	7.92 µM	158 ×10⁻⁶ cm/s	158 10^-6 cm/sec						
CC[C@@]1(O)C[C@H](O[C@H]2C[C@H](N(C)C)[C@H](O)[C@H](C)O2)c2c(cc3c(c2O)C(=O)c2c(O)ccc(O)c2C3=O)[C@H]1C(=O)OC [NCGC00178933-02]			0.475 µM	0.81 µM	31.9 ×10⁻⁶ cm/s					32 ×10⁻⁶ cm/s		
COc1ccc(C(=O)/C=C/c2ccccc2)cc1 [4'-METHOXYCHALCONE]			23.6 µM	23.6 µM		>1000 10^-6 cm/sec						>1000 10^-6 cm/sec
Cc1nccc2c1[nH]c1ccccc12 [Harmane]	59.6 ×10⁻⁶ cm/s	59.65 10 × 10^− 6 cm/sec	3.21 µM					3.21 µM	12.2 µM			
O=C(/C=C/c1ccc(O)c(O)c1)OCCc1ccccc1 [Caffeic acid phenethyl ester]			22.2 µM	24.8 µM								>1000 10^-6 cm/sec
